The source of these data is US20260325533A1, “CDK INHIBITOR COMPOUNDS” (ALEKSIA THERAPEUTICS, INC., priority 2023, published 2026).

Common to all, as to type: biochemical
One assay has as its target CDK2/CCNE1 (Homo sapiens, UniProt P24941). Description: CDK2 homogeneous time-resolved fluorescence (HTRF) kinase assay. Particulars: CDK2/CCNE. The procedure, abridged: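 Compounds were titrated 11-point, half-log from typically 10 μM against 3 nM CDK2/cyclin E1 at 1 mM ATP, with a 20 min enzyme preincubation. Phosphorylation of 50 nM ULight-4E-BP1 peptide over 60 min at 23 °C was detected by europium anti-phospho antibody TR-FRET.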
In general terms: Time-resolved FRET reads energy transfer from a long-lived donor to a nearby acceptor.

Another assay concerns the target CDK4/CCND3 (Homo sapiens, UniProt P11802). Description: CDK4 homogeneous time-resolved fluorescence (HTRF) kinase assay. As to conditions: CDK4/CCND. The procedure, abridged: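 Steps: compound plus 1.5 nM CDK4/CCND3, 20 min, 23 °C; add 1 mM ATP and 50 nM ULight-4E-BP1 (Thr37/46) peptide, 60 min; stop with 10 mM EDTA; add 2 nM Eu anti-phospho antibody, 60 min; read 665 nm. IC50 from 11-point half-log series starting 10 μM.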

In another assay the target is CDK6/CCND1 (Homo sapiens, UniProt Q00534). Description: CDK6 homogeneous time-resolved fluorescence (HTRF) kinase assay. As to conditions: CDK6/CCND. The procedure, abridged:
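Enzyme pre-incubated 20 min at 23 °C with compound, then reacted 60 min at 23 °C with 1 mM ATP and 50 nM ULight-4E-BP1 (Thr37/46) peptide; 1 nM enzyme, 1% DMSO. EDTA-stopped, Eu-anti-phospho antibody TR-FRET read (665 nm or 665/615 ratio); 11-point half-log titration from 10 μM gave IC50.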

A further assay deals with CDK1/CCNB1 (Homo sapiens, UniProt P06493). Description: CDK1 homogeneous time-resolved fluorescence (HTRF) kinase assay. Particulars: CDK1/CCNB. The procedure, abridged:
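Compounds, titrated 11 points in half-log steps typically from 10 μM, were incubated with enzyme for 20 min before ATP (1 mM) and ULight-labelled eIF4E-binding protein 1 peptide (50 nM) started a 60-min reaction at 23 °C. Phosphopeptide was detected by europium-antibody TR-FRET and IC50 values were derived.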

The mark [1] stands for this setting: x = IC50 <25 nM, read-out: CDK2/CCNE IC50 (<25 nM).
Setting [2] is: x = IC50 25-250 nM, read-out: CDK4/CCND IC50 (25-250 nM).
The mark [3] stands for this setting: x = IC50 >250 nM, read-out: CDK6/CCND IC50 (>250 nM column).
The mark [4] stands for this setting: x = IC50 25-250 nM, read-out: CDK1/CCNB IC50 (25-250 nM).
Setting [5] is: x = IC50 25-250 nM, read-out: CDK2/CCNE IC50 (25-250 nM).
The mark [6] stands for this setting: x = IC50 >250 nM, read-out: CDK4/CCND IC50 (>250 nM column).
The mark [7] stands for this setting: x = IC50 >250 nM, read-out: CDK1/CCNB IC50 (>250 nM column).

Where two headings read alike, the source gives them in different places.

Chain of CDK1/CCNB1 (P06493 whole entry): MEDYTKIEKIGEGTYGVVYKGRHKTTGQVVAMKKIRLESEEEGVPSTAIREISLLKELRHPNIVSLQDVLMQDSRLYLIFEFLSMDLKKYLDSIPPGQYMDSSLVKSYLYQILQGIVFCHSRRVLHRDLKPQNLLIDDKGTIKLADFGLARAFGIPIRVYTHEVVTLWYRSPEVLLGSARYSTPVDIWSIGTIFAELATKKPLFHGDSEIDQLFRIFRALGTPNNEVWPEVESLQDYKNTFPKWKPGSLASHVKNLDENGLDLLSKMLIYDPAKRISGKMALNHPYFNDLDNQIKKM
Chain of CDK1/CCNB1 (P14635 whole entry partner): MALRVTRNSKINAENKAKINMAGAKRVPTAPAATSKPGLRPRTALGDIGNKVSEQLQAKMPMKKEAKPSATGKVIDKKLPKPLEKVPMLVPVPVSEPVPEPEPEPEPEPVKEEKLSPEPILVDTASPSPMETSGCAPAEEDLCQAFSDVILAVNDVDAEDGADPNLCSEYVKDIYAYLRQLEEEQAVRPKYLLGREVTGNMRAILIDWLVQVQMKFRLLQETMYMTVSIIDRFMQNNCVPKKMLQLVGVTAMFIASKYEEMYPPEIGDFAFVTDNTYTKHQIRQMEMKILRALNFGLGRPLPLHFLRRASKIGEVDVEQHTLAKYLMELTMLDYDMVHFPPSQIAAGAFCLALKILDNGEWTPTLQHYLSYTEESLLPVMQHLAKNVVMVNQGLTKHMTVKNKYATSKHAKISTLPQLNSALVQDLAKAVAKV
Chain of CDK4/CCND3 (P11802 whole entry): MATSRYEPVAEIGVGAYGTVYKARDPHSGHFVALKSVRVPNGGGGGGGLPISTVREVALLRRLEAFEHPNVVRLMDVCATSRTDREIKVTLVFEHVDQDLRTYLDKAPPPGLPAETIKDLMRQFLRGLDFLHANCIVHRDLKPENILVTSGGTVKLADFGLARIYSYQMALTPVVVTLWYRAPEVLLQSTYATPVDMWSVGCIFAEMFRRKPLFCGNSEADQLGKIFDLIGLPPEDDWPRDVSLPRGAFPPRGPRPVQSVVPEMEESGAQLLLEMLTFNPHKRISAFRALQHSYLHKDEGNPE
Chain of CDK4/CCND3 (P30281 whole entry partner): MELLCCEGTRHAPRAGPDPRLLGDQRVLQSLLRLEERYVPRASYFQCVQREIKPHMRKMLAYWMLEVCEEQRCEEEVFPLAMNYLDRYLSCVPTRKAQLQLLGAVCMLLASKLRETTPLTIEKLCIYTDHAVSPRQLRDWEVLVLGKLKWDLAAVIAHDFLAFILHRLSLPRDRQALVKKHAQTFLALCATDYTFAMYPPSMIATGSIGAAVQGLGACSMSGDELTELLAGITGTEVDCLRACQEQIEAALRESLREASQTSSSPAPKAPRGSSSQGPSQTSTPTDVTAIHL
Chain of CDK6/CCND1 (Q00534 whole entry): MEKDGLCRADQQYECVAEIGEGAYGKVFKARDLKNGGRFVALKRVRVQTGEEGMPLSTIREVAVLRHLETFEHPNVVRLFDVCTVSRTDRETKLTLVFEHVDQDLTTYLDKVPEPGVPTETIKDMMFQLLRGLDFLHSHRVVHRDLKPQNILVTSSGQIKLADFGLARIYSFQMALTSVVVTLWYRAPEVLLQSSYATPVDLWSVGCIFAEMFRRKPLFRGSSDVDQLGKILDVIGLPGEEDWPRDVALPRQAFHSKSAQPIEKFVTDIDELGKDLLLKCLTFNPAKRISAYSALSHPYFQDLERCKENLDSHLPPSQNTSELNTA
Chain of CDK6/CCND1 (P24385 whole entry partner): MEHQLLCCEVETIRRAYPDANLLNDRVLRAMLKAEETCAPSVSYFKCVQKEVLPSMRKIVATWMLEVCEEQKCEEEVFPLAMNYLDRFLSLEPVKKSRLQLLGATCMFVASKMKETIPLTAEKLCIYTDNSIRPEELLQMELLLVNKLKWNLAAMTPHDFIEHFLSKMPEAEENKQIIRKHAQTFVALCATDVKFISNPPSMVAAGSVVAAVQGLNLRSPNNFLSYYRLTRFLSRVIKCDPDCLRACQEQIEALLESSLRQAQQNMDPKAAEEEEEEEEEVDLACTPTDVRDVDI

`CS(=N)(=O)c1ccc(Nc2cc3c(C#Cc4ccc5c(c4)NC(=O)C54CCC4)nccc3cn2)cc1` (single isomer, unassigned) [Ex 368, 6'-((7-((4-(S-methylsulfonimidoyl)phenyl)amino)-2,6-naphthyridin-1-yl)ethynyl)spiro[cyclobutane-1,3'-indolin]-2'-one]: the IC50 at CDK2/CCNE1 (setting [1]) was less than 25 nM; on CDK4/CCND3 (setting [2]), 25 to 250 nM; at CDK6/CCND1 (setting [3]), greater than 250 nM; on CDK1/CCNB1 (setting [4]) it was 25 to 250 nM.

As for `CC(C)S(=N)(=O)c1ccc(Nc2cc3c(C#Cc4ccc5c(c4)NC(=O)C54CCC4)nccc3cn2)cc1` (single isomer, unassigned) [Ex 383, 6'-((7-((4-(propan-2-ylsulfonimidoyl)phenyl)amino)-2,6-naphthyridin-1-yl)ethynyl)spiro[cyclobutane-1,3'-indolin]-2'-one], the IC50 on CDK2/CCNE1 (setting [1]) is less than 25 nM; on CDK4/CCND3 (setting [2]) it was 25 to 250 nM; on CDK6/CCND1 (x = IC50 25-250 nM, read-out: CDK6/CCND IC50 (25-250 nM)), 25 to 250 nM; on CDK1/CCNB1 (setting [4]) it was 25 to 250 nM.

With `CC(C)S(=N)(=O)c1ccc(Nc2cc3c(C#Cc4cccnc4N)nccc3cn2)cc1` (single isomer, unassigned) [Ex 402, (4-((5-((2-aminopyridin-3-yl)ethynyl)-2,6-naphthyridin-3-yl)amino)phenyl)(imino)(isopropyl)-l6-sulfanone], the IC50 on CDK2/CCNE1 (setting [5]) is 25 to 250 nM; on CDK4/CCND3 (setting [6]) it was greater than 250 nM; at CDK6/CCND1 (setting [3]), greater than 250 nM; on CDK1/CCNB1 (setting [7]) it was greater than 250 nM.

As for `CCC1(CC)C(=O)Nc2cc(C#Cc3nccc4cnc(Nc5ccc(S(=N)(=O)C6CC6)cc5)cc34)ccc21` (single isomer, unassigned) [Ex 410, 6-((7-((4-(cyclopropanesulfonimidoyl)phenyl)amino)-2,6-naphthyridin-1-yl)ethynyl)-3,3-diethylindolin-2-one], the IC50 was less than 25 nM at CDK2/CCNE1 (setting [1]), 25 to 250 nM at CDK4/CCND3 (setting [2]), greater than 250 nM on CDK6/CCND1 (setting [3]) and 25 to 250 nM on CDK1/CCNB1 (setting [4]).

As to `CCC1(CC)C(=O)Nc2cc(C#Cc3nccc4cnc(Nc5ccc(S(=N)(=O)CC)cc5)cc34)ccc21` (single isomer, unassigned) [Ex 411, 3,3-diethyl-6-((7-((4-(ethylsulfonimidoyl)phenyl)amino)-2,6-naphthyridin-1-yl)ethynyl)indolin-2-one], the IC50 at CDK2/CCNE1 (setting [1]) was less than 25 nM; at CDK4/CCND3 (setting [6]) it was greater than 250 nM; on CDK6/CCND1 (setting [3]), greater than 250 nM; at CDK1/CCNB1 (setting [4]) it was 25 to 250 nM.

Regarding `CCC1(CC)C(=O)Nc2cc(C#Cc3nccc4cnc(Nc5ccc(S(=N)(=O)C6CCC6)cc5)cc34)ccc21` (single isomer, unassigned) [Ex 412, 6-((7-((4-(cyclobutanesulfonimidoyl)phenyl)amino)-2,6-naphthyridin-1-yl)ethynyl)-3,3-diethylindolin-2-one], the IC50 at CDK2/CCNE1 (setting [1]) was less than 25 nM; at CDK4/CCND3 (setting [2]), 25 to 250 nM; at CDK6/CCND1 (setting [3]), greater than 250 nM; on CDK1/CCNB1 (setting [7]), greater than 250 nM.

For the compound `CCC1(CC)C(=O)Nc2cc(C#Cc3nccc4cnc(Nc5ccc(S(=N)(=O)C(C)C)cc5)cc34)ccc21` (single isomer, unassigned) [Ex 414, 3,3-diethyl-6-((7-((4-(propan-2-ylsulfonimidoyl)phenyl)amino)-2,6-naphthyridin-1-yl)ethynyl)indolin-2-one], the IC50 is less than 25 nM at CDK2/CCNE1 (setting [1]), greater than 250 nM on CDK4/CCND3 (setting [6]), greater than 250 nM on CDK6/CCND1 (setting [3]) and greater than 250 nM at CDK1/CCNB1 (setting [7]).

As to `N=S(=O)(c1ccc(Nc2cc3c(C#Cc4cccnc4N)nccc3cn2)cc1)C1CC1` (single isomer, unassigned) [Ex 417, (4-((5-((2-aminopyridin-3-yl)ethynyl)-2,6-naphthyridin-3-yl)amino)phenyl)(cyclopropyl)(imino)-l6-sulfanone], the IC50 at CDK2/CCNE1 (setting [5]) was 25 to 250 nM; at CDK4/CCND3 (setting [6]), greater than 250 nM; on CDK6/CCND1 (setting [3]), greater than 250 nM; on CDK1/CCNB1 (setting [7]) it was greater than 250 nM.
